Consider 20 molecules from patent US20090030039A1, “Piperidine Derivatives as Cxcr3 Receptor Antagonists” (priority 2006, published 2009).

Counter-ions that a name gives are not always drawn.

The target in data set [1] is T1, human CXCR3 (Homo sapiens, UniProt P49682).
T1 construct: expressed in transfected cells; host or cells: CHO cells (membrane preparation)
T1 sequence (P49682 1-368): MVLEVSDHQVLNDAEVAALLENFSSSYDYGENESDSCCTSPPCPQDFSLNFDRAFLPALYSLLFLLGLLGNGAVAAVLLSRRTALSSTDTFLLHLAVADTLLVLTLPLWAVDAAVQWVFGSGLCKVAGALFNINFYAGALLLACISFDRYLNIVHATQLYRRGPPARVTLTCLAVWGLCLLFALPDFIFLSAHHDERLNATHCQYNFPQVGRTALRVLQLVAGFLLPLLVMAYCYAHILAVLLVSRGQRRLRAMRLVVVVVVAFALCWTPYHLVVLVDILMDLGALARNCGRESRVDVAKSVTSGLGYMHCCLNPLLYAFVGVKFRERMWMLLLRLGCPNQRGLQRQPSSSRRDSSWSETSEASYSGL
Briefly: [35S]GTPγS exchange assay, CXCR3 receptor inhibition (hI-TAC-induced GTPγS-binding). The format is biochemical. Particulars: -log IC50 (molar) inhibiting 50% of specific I-TAC-induced GTPγS-binding, membranes of human CXCR3-transfected CHO cells; for IC50: read-out: pIC50 (converted). In general terms: Binding of GTPγS marks nucleotide exchange on a G protein.

As for `Cl.Nc1cc(CN2CCC(C3(c4ccccc4)CCC(=O)NC3=O)CC2)ccc1Cl` (centres unmarked), the melting point (commonly the temperature, or range, at which the solid turns liquid) came out at 287.8 °C.

`O=C1CCC(c2ccccc2)(C2CCN(Cc3ccc(Cl)c([N+](=O)[O-])c3)CC2)C(=O)N1` (centres unmarked) (as salt: HCl) [Compound 12]: the melting point lay within 244.4 to 248.3 °C.

The molecule `O=C1CCC(c2ccccc2)(C2CCN(Cc3ccc(Cl)c(F)c3)CC2)C(=O)N1` (single isomer, unassigned) [Compound 40] gave a melting point of 192 to 194.3 °C. Also, the IC50 in data set [1] is 398 nM.

In turn, `O=C1CCC(c2ccccc2)(C2CCN(Cc3ccc(Cl)c(F)c3)CC2)C(=O)N1` (single isomer, unassigned) [Compound 41] came in with a melting point of 192.3 to 196.3 °C. Besides, the pIC50 – broadly, −log10 of the IC50, conventionally taken in molar units – in data set [1] came out at 6.4.

Molecule `Cl.O=C1CCC(c2ccc(F)cc2F)(C2CCN(Cc3ccc(Br)cc3)CC2)C(=O)N1` (single isomer, unassigned) [Compound 195] registered a melting point of 273.9 to 278.3 °C. Moreover, the IC50 in data set [1] was 316 nM.

Consider `Cl.O=C1CCC(c2ccc(F)cc2F)(C2CCN(Cc3ccc(Cl)c(F)c3)CC2)C(=O)N1` (single isomer, unassigned) [Compound 203], for which the melting point fell in the range of 282 to 285.9 °C. For the same molecule, the IC50 in data set [1] was 79.4 nM.

Consider `Cl.O=C1CCC(c2ccc(F)cc2F)(C2CCN(Cc3ccc(Cl)c(F)c3)CC2)C(=O)N1` (single isomer, unassigned) [Compound 204], for which the melting point is 282 to 283.8 °C. The IC50 in data set [1] is 251 nM.

Turning to `CN1C(=O)CCC(c2ccccc2)(C2CCN(Cc3ccc(Br)cc3)CC2)C1=O` (centres unmarked) [Compound 125], the melting point lay in the range of 298.1 to 303.1 °C. The molecule further came in with a pIC50 in data set [1] of 5.6.

Regarding `Cc1cc(CN2CCC(C3(c4ccc(F)cc4F)CCC(=O)NC3=O)CC2)ccc1Br` (centres unmarked) [Compound 196], the IC50 in data set [1] is 316 nM.

With `O=C1CCC(c2ccc(F)cc2F)(C2CCN(Cc3ccc(Br)c(F)c3)CC2)C(=O)N1` (centres unmarked) [Compound 197], in data set [1], the IC50 was 398 nM.

For `O=C1CCC(c2ccc(F)cc2F)(C2CCN(Cc3ccc(Br)cc3F)CC2)C(=O)N1` (centres unmarked) [Compound 198], in data set [1], the IC50 is 251 nM.

As to `O=C1CCC(c2ccc(F)cc2F)(C2CCN(Cc3ccc(Cl)cc3)CC2)C(=O)N1` (centres unmarked) [Compound 199], in data set [1], the IC50 was 251 nM.

In the case of `O=C1CCC(c2ccc(F)cc2F)(C2CCN(Cc3ccc(Cl)cc3Cl)CC2)C(=O)N1` (centres unmarked) [Compound 200], the IC50 in data set [1] is 631 nM.

For the molecule `O=C1CCC(c2ccc(F)cc2F)(C2CCN(Cc3ccc(Cl)c(Cl)c3)CC2)C(=O)N1` (centres unmarked) [Compound 201], in data set [1], the IC50 was 398 nM.

As to `O=C1CCC(c2ccc(F)cc2F)(C2CCN(Cc3ccc(OC(F)F)cc3)CC2)C(=O)N1` (centres unmarked) [Compound 205], in data set [1], the IC50 is 631 nM.

In the case of `O=C1CCC(c2ccc(F)cc2F)(C2CCN(Cc3cc4cc(Br)ccc4o3)CC2)C(=O)N1` (centres unmarked) [Compound 206], the IC50 in data set [1] is 1260 nM.

As for `O=C1CCC(c2ccc(F)cc2F)(C2CCN(Cc3ccc4nonc4c3)CC2)C(=O)N1` (centres unmarked) [Compound 207], in data set [1], the IC50 is 398 nM.

On to `CC(c1ccc(Br)cc1)N1CCC(C2(c3ccc(F)cc3F)CCC(=O)NC2=O)CC1` (centres unmarked) [Compound 208], for which the IC50 in data set [1] was 158 nM.

Take `CC1CC(=O)NC(=O)C1(c1ccccc1)C1CCN(Cc2ccc(Br)cc2)CC1` (centres unmarked) [Compound 209]: the IC50 in data set [1] is 501 nM.

`CC(=O)N1CC(c2ccccc2)(C2CCN(Cc3ccc(Br)cc3)CC2)CCC1=O` (centres unmarked) [Compound 210]: in data set [1], the IC50 was 1260 nM.
